Test results reported in US20240382629A1, “HETEROBIVALENT AND HOMOBIVALENT AGENTS TARGETING FIBROBLAST ACTIVATION PROTEIN ALPHA AND/OR PROSTATE-SPECIFIC MEMBRANE ANTIGEN” (The Johns Hopkins University, priority 2021, published 2024).
Values joined by “and” are separate entries in the source; they are usually repeats but may differ in a detail not shown here. Identical values can stand only once.

Assay: Biodistribution of [^18F]JHU122047 with UAMC-01110 blocker
Type: in vivo, mouse
[1] = + Blocker UAMC-01110, 1 hr post injection, mean
[2] = + Vehicle, 1 hr post injection, mean
[3] = individual mouse, NOD/SCID, 120 min
[4] = individual mouse, NUDE, 120 min
[5] = mean (one sample; gamma counter error), NOD/SCID, 120 min

With N#C[C@@H]1CCCN1C(=O)CNC(=O)c1ccnc2ccc(OCCF)cc12 [[^18F]JHU122047] the “% ID/g Mean Bladder” value [1] was 2.10 % ID/g, the “% ID/g Mean Bladder” value [2] was 1.13 % ID/g and the “% ID/g Mean Blood” value (Blood, + Blocker UAMC-01110, 1 hr post injection, mean) was 0.12 % ID/g. For the same molecule, the “% ID/g Mean Blood” value (Blood, + Vehicle, 1 hr post injection, mean) was 0.36 % ID/g, the “% ID/g Blood” value (Blood, + Vehicle, 1 hr post injection, single mouse) was 0.38 % ID/g and 0.34 % ID/g and the “% ID/g Mean Brain” value [1] was 0.19 % ID/g. For the same molecule, the “% ID/g Mean Brain” value [2] was 0.14 % ID/g, the “% ID/g Mean Fat” value [1] was 0.08 % ID/g and the “% ID/g Mean Fat” value [2] was 0.11 % ID/g. For the same molecule, the “% ID/g Mean Heart” value (Heart, + Blocker UAMC-01110, 1 hr post injection, mean) was 0.38 % ID/g, the “% ID/g Mean Heart” value (Heart, + Vehicle, 1 hr post injection, mean) was 0.35 % ID/g and the “% ID/g Heart” value (Heart, + Vehicle, 1 hr post injection, single mouse) was 0.35 % ID/g. For the same molecule, the “% ID/g Mean Kidney” value [1] was 0.60 % ID/g, the “% ID/g Mean Kidney” value [2] was 1.25 % ID/g and the “% ID/g Mean Large intestine” value [1] was 2.19 % ID/g. The “% ID/g Mean Large intestine” value [2] was 0.99 % ID/g, the “% ID/g Mean Liver” value (Liver, + Blocker UAMC-01110, 1 hr post injection, mean) was 0.66 % ID/g and the “% ID/g Mean Liver” value (Liver, + Vehicle, 1 hr post injection, mean) was 0.68 % ID/g. For the same molecule, the “% ID/g Liver” value (Liver, + Vehicle, 1 hr post injection, single mouse) was 0.67 % ID/g, the “% ID/g Mean Lung” value (Lung, + Blocker UAMC-01110, 1 hr post injection, mean) was 0.33 % ID/g and the “% ID/g Mean Lung” value (Lung, + Vehicle, 1 hr post injection, mean) was 0.36 % ID/g. For the same molecule, the “% ID/g Lung” value (Lung, + Vehicle, 1 hr post injection, single mouse) was 0.34 % ID/g and 0.37 % ID/g, the “% ID/g Mean Muscle” value [1] was 0.27 % ID/g and the “% ID/g Mean Muscle” value [2] was 0.34 % ID/g. The “% ID/g Mean Pancreas” value [1] was 0.23 % ID/g, the “% ID/g Mean Pancreas” value [2] was 0.33 % ID/g and the “% ID/g Mean Salivary gland” value [1] was 0.28 % ID/g. The “% ID/g Mean Salivary gland” value [2] was 0.58 % ID/g, the “% ID/g Mean Small intestine” value [1] was 8.53 % ID/g and the “% ID/g Mean Small intestine” value [2] was 2.48 % ID/g. For the same molecule, the “% ID/g Mean Spleen” value [1] was 0.28 % ID/g, the “% ID/g Mean Spleen” value [2] was 0.26 % ID/g and the “% ID/g Mean Stomach” value [1] was 0.50 % ID/g. The “% ID/g Mean Stomach” value [2] was 0.32 % ID/g, the “% ID/g Mean Tumor” value [1] was 0.45 % ID/g and the “% ID/g Mean Tumor” value [2] was 1.96 % ID/g. For the same molecule, the “Bladder % ID/g” value (individual mouse) was 12.70 % ID/g and 11.31 % ID/g, the “Brain % ID/g” value (individual mouse) was 0.02 % ID/g and 0.08 % ID/g and the “Fat % ID/g” value (individual mouse) was 0.07 % ID/g and 0.10 % ID/g. The “Femur % ID/g” value (individual mouse) was 0.87 % ID/g and 0.43 % ID/g, the “Kidney % ID/g” value (individual mouse) was 1.61 % ID/g and 1.54 % ID/g and the “Large intestine % ID/g” value (individual mouse) was 0.18 % ID/g and 0.19 % ID/g. The “Liver % ID/g” value (individual mouse) was 1.74 % ID/g and 1.65 % ID/g, the “Muscle % ID/g” value (individual mouse) was 0.07 % ID/g and 0.12 % ID/g and the “Pancreas % ID/g” value (individual mouse) was 0.07 % ID/g and 0.19 % ID/g. For the same molecule, the “Salivary gland % ID/g” value (individual mouse) was 0.12 % ID/g and 0.14 % ID/g, the “Small intestine % ID/g” value (individual mouse) was 0.48 % ID/g and 0.45 % ID/g and the “Spleen % ID/g” value (individual mouse) was 0.10 % ID/g and 0.15 % ID/g. For the same molecule, the “Stomach % ID/g” value (individual mouse) was 0.18 % ID/g and 0.17 % ID/g, the “Tumor % ID/g” value (individual mouse) was 0.21 % ID/g and 0.23 % ID/g and the “Bladder % ID/g” value [3] was 3.86 % ID/g. The “Blood % ID/g” value [3] was 0.40 % ID/g and 0.47 % ID/g, the “Brain % ID/g” value [3] was 0.04 % ID/g and the “Fat % ID/g” value [3] was 0.09 % ID/g and 0.18 % ID/g. The “Femur % ID/g” value [3] was 1.59 % ID/g, the “Heart % ID/g” value [3] was 0.20 % ID/g and 0.29 % ID/g and the “Kidney % ID/g” value [3] was 1.51 % ID/g and 1.58 % ID/g. For the same molecule, the “Large intestine % ID/g” value [3] was 0.30 % ID/g and 0.45 % ID/g, the “Liver % ID/g” value [3] was 1.11 % ID/g and 0.88 % ID/g and the “Lung % ID/g” value [3] was 0.36 % ID/g and 0.57 % ID/g. The “Muscle % ID/g” value [3] was 0.25 % ID/g and 0.35 % ID/g, the “Pancreas % ID/g” value [3] was 0.38 % ID/g and 0.77 % ID/g and the “Salivary gland % ID/g” value [3] was 0.74 % ID/g and 0.62 % ID/g. The “Small intestine % ID/g” value [3] was 0.38 % ID/g and 0.95 % ID/g, the “Spleen % ID/g” value [3] was 0.26 % ID/g and 0.36 % ID/g and the “Stomach % ID/g” value [3] was 0.22 % ID/g and 0.35 % ID/g. For the same molecule, the “Tumor % ID/g” value [3] was 3.13 % ID/g, the “Bladder % ID/g” value [4] was 1.31 % ID/g and 1.80 % ID/g and the “Blood % ID/g” value [4] was 0.66 % ID/g and 0.56 % ID/g. For the same molecule, the “Brain % ID/g” value [4] was 0.05 % ID/g and 0.06 % ID/g, the “Fat % ID/g” value [4] was 0.13 % ID/g and 0.10 % ID/g and the “Femur % ID/g” value [4] was 2.27 % ID/g and 2.55 % ID/g. The “Heart % ID/g” value [4] was 0.34 % ID/g and 0.28 % ID/g, the “Kidney % ID/g” value [4] was 1.50 % ID/g and 1.43 % ID/g and the “Large intestine % ID/g” value [4] was 0.34 % ID/g and 0.41 % ID/g. For the same molecule, the “Liver % ID/g” value [4] was 0.45 % ID/g and 0.42 % ID/g, the “Lung % ID/g” value [4] was 0.49 % ID/g and 0.56 % ID/g and the “Muscle % ID/g” value [4] was 0.49 % ID/g and 0.45 % ID/g. For the same molecule, the “Pancreas % ID/g” value [4] was 0.53 % ID/g and 0.34 % ID/g, the “Salivary gland % ID/g” value [4] was 1.02 % ID/g and 0.78 % ID/g and the “Small intestine % ID/g” value [4] was 0.35 % ID/g and 0.31 % ID/g. For the same molecule, the “Spleen % ID/g” value [4] was 0.22 % ID/g, the “Stomach % ID/g” value [4] was 0.27 % ID/g and 0.25 % ID/g and the “Tumor % ID/g” value [4] was 2.65 % ID/g and 3.51 % ID/g. The “Bladder % ID/g” value (mean) was 12.01 % ID/g, the “Brain % ID/g” value (mean) was 0.02 % ID/g and the “Fat % ID/g” value (mean) was 0.08 % ID/g. For the same molecule, the “Femur % ID/g” value (mean) was 0.40 % ID/g, the “Kidney % ID/g” value (mean) was 1.57 % ID/g and the “Large intestine % ID/g” value (mean) was 0.18 % ID/g. For the same molecule, the “Liver % ID/g” value (mean) was 1.70 % ID/g, the “Lung % ID/g” value (mean) was 0.38 % ID/g and the “Muscle % ID/g” value (mean) was 0.09 % ID/g. The “Pancreas % ID/g” value (mean) was 0.10 % ID/g, the “Salivary gland % ID/g” value (mean) was 0.13 % ID/g and the “Small intestine % ID/g” value (mean) was 0.47 % ID/g. The “Spleen % ID/g” value (mean) was 0.13 % ID/g, the “Stomach % ID/g” value (mean) was 0.17 % ID/g and the “Tumor % ID/g” value (mean) was 0.22 % ID/g. The “Bladder % ID/g” value [5] was 3.86 % ID/g, the “Femur % ID/g” value [5] was 1.59 % ID/g and the “Tumor % ID/g” value [5] was 3.13 % ID/g. For the same molecule, the “Blood % ID/g” value (mean, NOD/SCID, 120 min) was 0.43 % ID/g, the “Brain % ID/g” value (mean, NOD/SCID, 120 min) was 0.04 % ID/g and the “Fat % ID/g” value (mean, NOD/SCID, 120 min) was 0.11 % ID/g. The “Heart % ID/g” value (mean, NOD/SCID, 120 min) was 0.24 % ID/g, the “Kidney % ID/g” value (mean, NOD/SCID, 120 min) was 1.55 % ID/g and the “Large intestine % ID/g” value (mean, NOD/SCID, 120 min) was 0.37 % ID/g. The “Liver % ID/g” value (mean, NOD/SCID, 120 min) was 1.00 % ID/g, the “Lung % ID/g” value (mean, NOD/SCID, 120 min) was 0.47 % ID/g and the “Muscle % ID/g” value (mean, NOD/SCID, 120 min) was 0.30 % ID/g. For the same molecule, the “Pancreas % ID/g” value (mean, NOD/SCID, 120 min) was 0.57 % ID/g, the “Salivary gland % ID/g” value (mean, NOD/SCID, 120 min) was 0.58 % ID/g and the “Small intestine % ID/g” value (mean, NOD/SCID, 120 min) was 0.67 % ID/g. For the same molecule, the “Spleen % ID/g” value (mean, NOD/SCID, 120 min) was 0.31 % ID/g, the “Stomach % ID/g” value (mean, NOD/SCID, 120 min) was 0.28 % ID/g and the “Bladder % ID/g” value (mean, NUDE, 120 min) was 1.55 % ID/g. For the same molecule, the “Blood % ID/g” value (mean, NUDE, 120 min) was 0.61 % ID/g, the “Brain % ID/g” value (mean, NUDE, 120 min) was 0.06 % ID/g and the “Fat % ID/g” value (mean, NUDE, 120 min) was 0.12 % ID/g. The “Femur % ID/g” value (mean, NUDE, 120 min) was 2.41 % ID/g, the “Heart % ID/g” value (mean, NUDE, 120 min) was 0.31 % ID/g and the “Kidney % ID/g” value (mean, NUDE, 120 min) was 1.46 % ID/g. The “Large intestine % ID/g” value (mean, NUDE, 120 min) was 0.37 % ID/g, the “Liver % ID/g” value (mean, NUDE, 120 min) was 0.44 % ID/g and the “Lung % ID/g” value (mean, NUDE, 120 min) was 0.53 % ID/g. The “Muscle % ID/g” value (mean, NUDE, 120 min) was 0.47 % ID/g, the “Pancreas % ID/g” value (mean, NUDE, 120 min) was 0.43 % ID/g and the “Salivary gland % ID/g” value (mean, NUDE, 120 min) was 0.90 % ID/g. The “Small intestine % ID/g” value (mean, NUDE, 120 min) was 0.33 % ID/g, the “Spleen % ID/g” value (mean, NUDE, 120 min) was 0.22 % ID/g and the “Stomach % ID/g” value (mean, NUDE, 120 min) was 0.26 % ID/g. The “Tumor % ID/g” value (mean, NUDE, 120 min) was 3.08 % ID/g.
